Measurements taken from patent US20090142323A1, “METHODS FOR TREATING A DISORDER BY REGULATING GPRC6A” (priority 2007, published 2009).

How the values were obtained:
bone marrow and testes = assay: phospho-ERK activity and Egr-1 expression in bone marrow and testes in vivo; set-up: species or system mouse; settings: 200 mg/kg intraperitoneally
Method: To establish a linkage between non-genomic effects of androgens and tissue responses in vivo, we examined the impact of loss of GPRC6A on the capacity of testosterone to stimulate phospho-ERK activity and early growth-responsive 1 (Egr-1) expression in bone marrow and testes in vivo (FIGS. 8D and 8E). To accomplish this, we administered testosterone at a dose of 200 MG/KG or vehicle intraperitonealy to wild-type and GPRC6A^−/− male mice.
To establish a linkage between non-genomic effects of androgens and tissue responses in vivo, we examined the impact of loss of GPRC6A on the capacity of testosterone to stimulate phospho-ERK activity and early growth-responsive 1 (Egr-1) expression in bone marrow and testes (FIG. 8E). To accomplish this, we administered testosterone at a dose of 200 mg/kg or vehicle intraperitoneally to wild-type and GPRC6A^−/− male mice. Bone marrow was harvested at 20 and 60 minutes for assessment of ERK phosphorylation and Egr-1 mRNA expression.

HEK-293 cells = assay: phospho-ERK in non-transfected HEK-293 control cells; assay type: cell-based, human; settings: control HEK293, no GPRC6A
Method: (§1) Equal amounts of lysates were subjected to 10% SDS-PAGE, and phospho-ERK1/2 levels were determined by immunoblotting using antiphospho-ERK1/2 mitogen-activated protein kinase antibody (Cell Signaling Technology). […] An anti-peptide antibody was raised in a rabbit against a peptide ([…] (SEQ ID NO: 27)) corresponding to a sequence in the extracellular domain of mouse GPRC6A (in exon 1 of mouse GPRC6A gene) produced by Abgent (San Diego, Calif.). For phospho-ERK, the phospho-ERK1/2 levels were determined by immunoblotting using anti-phospho-ERK1/2 mitogen-activated protein kinase antibody (Cell Signaling Technology). Urinary β2-microglobulin was detected by rabbit polyclonal anti-β2-microglobulin antibody (Abcam Inc.). For aromatase expression analysis, the rabbit polyclonal anti-aromatase antibody (Abcam Inc.) and goat anti-rabbit IgG HRP secondary antibody (Santa Cruz Biotechnology Inc.) were used. Mouse anti-Actin antibody (Santa Cruz Biotechnology Inc.) was used for control protein loading.

seminal vesicles = assay: seminal vesicle size after orchiectomy and testosterone replacement; assay type: in vivo, mouse; settings: testosterone slow releasing pellet
From the text: First, the male WT and GPRC6A^−/− littermates will be castrated by removal of the testicles (orchiectomy) and hormone recovered by implanting testosterone slow releasing pellet.

[1] = target: T1, calcium sensing receptor (CASR) (Rattus norvegicus, UniProt P48442); assay: phospho-ERK in HEK-293 cells transfected with calcium sensing receptor; assay type: cell-based; settings: HEK293 transfected with CASR
T1 construct: expressed in transfected cells; host or cells: HEK-293
T1 sequence (P48442 20-1079): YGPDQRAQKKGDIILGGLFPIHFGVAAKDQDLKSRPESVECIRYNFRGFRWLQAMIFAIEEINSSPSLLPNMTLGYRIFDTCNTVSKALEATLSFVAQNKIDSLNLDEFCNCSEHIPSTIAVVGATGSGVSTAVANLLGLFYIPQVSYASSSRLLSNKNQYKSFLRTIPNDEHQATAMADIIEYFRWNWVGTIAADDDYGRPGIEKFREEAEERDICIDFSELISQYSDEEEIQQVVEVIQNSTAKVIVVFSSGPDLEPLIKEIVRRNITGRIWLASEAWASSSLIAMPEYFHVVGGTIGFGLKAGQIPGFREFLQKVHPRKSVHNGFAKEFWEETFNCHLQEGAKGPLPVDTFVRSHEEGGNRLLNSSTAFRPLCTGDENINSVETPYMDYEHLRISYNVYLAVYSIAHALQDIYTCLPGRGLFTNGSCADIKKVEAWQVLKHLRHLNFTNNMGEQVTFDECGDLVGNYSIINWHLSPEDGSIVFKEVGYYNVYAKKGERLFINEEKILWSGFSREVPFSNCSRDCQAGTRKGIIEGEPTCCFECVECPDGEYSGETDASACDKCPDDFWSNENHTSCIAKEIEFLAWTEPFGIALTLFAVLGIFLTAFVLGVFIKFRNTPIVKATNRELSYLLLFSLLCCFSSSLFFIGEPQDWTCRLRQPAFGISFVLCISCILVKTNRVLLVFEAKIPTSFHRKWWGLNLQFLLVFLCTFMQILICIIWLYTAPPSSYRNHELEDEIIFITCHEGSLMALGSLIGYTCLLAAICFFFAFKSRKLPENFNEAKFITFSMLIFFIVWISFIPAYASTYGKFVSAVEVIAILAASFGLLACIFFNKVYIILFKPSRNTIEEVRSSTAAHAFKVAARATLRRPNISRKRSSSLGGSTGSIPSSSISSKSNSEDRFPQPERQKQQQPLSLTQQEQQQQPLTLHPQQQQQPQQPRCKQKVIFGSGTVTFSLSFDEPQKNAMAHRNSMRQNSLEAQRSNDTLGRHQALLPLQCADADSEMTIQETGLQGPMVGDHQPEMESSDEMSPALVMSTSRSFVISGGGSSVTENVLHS
Method: as §1

C[C@]12CC[C@H]3[C@@H](CCC4=CC(=O)CC[C@@]43C)[C@@H]1CC[C@@H]2O [testosterone]
Egr-1 expression in bone marrow and testes (bone marrow and testes; GPRC6A-/- male mice): markedly attenuated | phospho-ERK activity in bone marrow and testes (bone marrow and testes; GPRC6A-/- male mice): markedly attenuated | Egr-1 expression in bone marrow and testes (bone marrow and testes; wild-type male mice): stimulated | phospho-ERK activity in bone marrow and testes (bone marrow and testes; wild-type male mice): stimulated | phospho-ERK response (HEK-293 cells): did not responded | recovery of seminal vesicle size (seminal vesicles; orchidectomized GPRC6A-/- mice): weaker compared to wild-type | recovery of seminal vesicle size (seminal vesicles; orchidectomized wild-type mice): effectively recovered the size of seminal vesicles | phospho-ERK response [1]: did not responded
